Reference: patent publication US10676468B2, “N-(3-heteroarylaryl)-4-arylarylcarboxamides and analogs as hedgehog pathway inhibitors and use thereof” (IMPACT Therapeutics, Inc., priority 2012, dated 2020)
Counter-ions that a name gives are not always drawn.

Experiments:
Assay type in all cases: cell-based, mouse
[1] = tested on: Hedgehog Signaling Pathway; assay: SAG-induced differentiation of C3H10T1/2 cells into osteoblastic cells, intracellular alkaline phosphatase activity; conditions: 1 μM SAG, 5 days, alkaline phosphatase activity (OD405), read-out: IC50 values of compounds that inhibit Hh pathway
Procedure, shortened: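 Mouse C3H10T1/2 cells were induced with SAG and exposed to compound (10 μM to 1 nM) for 5 days at 37 °C. Cells were lysed in 0.2% Triton, and alkaline phosphatase activity was read as OD405 over 30 min at 37 °C in pH 9.8 substrate buffer. IC50 came from a non-linear fit of background-subtracted OD405 against log concentration.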

[2] = tested on: Hedgehog Signaling Pathway; assay: SHH-induced differentiation of C3H10T1/2 cells into osteoblastic cells, intracellular alkaline phosphatase activity; conditions: 10 nM SHH-N, 5 days, alkaline phosphatase activity (OD405), read-out: IC50 values of compounds that inhibit Hh pathway
Procedure, shortened: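 Hedgehog pathway inhibition was taken as loss of SHH-driven osteoblastic differentiation. Test compound (10 nM–10 μM) plus SHH-N (10 nM) was applied to C3H10T1/2 cells for 5 days, then lysate phosphatase turnover was measured as the 30-min OD405 change at 37 °C. IC50 was fitted from activity versus log dose.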

[3] = tested on: Hedgehog Signaling Pathway; assay: Gli-Luc reporter gene cell assay in C3H10T1/2/Gli-Luc cells stimulated with Shh; conditions: 30 nM Shh, luciferase activity (RLU), read-out: IC50 values of compounds that inhibit Hh pathway
Procedure, shortened: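 IC50 from nonlinear fit of luciferase RLU versus log compound concentration. Stably transfected C3H10T1/2/Gli-Luc cells received a 7-point compound series alongside Shh (30 nM in the added medium) for 24 h at 37 °C in DMEM/10% FBS, then were lysed for luciferase readout.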

[4] = Mus musculus, C3H 10T1/2, 120 h

| Structure (SMILES) | IC50 [1, 4] | IC50 [2, 4] | IC50 ([3]; Mus musculus, C3H 10T1/2, 24 h) | IC50 [1] | IC50 [2] | IC50 ([3]; 24 hours) |
| --- | --- | --- | --- | --- | --- | --- |
| C[C@@H]1CN(c2ccc(C(=O)Nc3ccc(Cl)c(-c4cn5ccsc5n4)c3)c(Cl)c2)C[C@H](C)N1C [Example 205, N-(3-(imidazo[2,1-b]thiazol-6-yl)-4-chlorophenyl)-2-chloro-4-((3S,5R)-3,4,5-trimethylpiperazin-1-yl)benzamide] | 250 nM | 94 nM | 29 nM |  |  |  |
| C[C@@H]1CN(c2ccc(C(=O)Nc3ccc(Cl)c(-c4ncc(C5CC5)[nH]4)c3)c(Cl)c2)C[C@H](C)N1C [Example 176, N-(3-(5-cyclopropyl-1H-imidazol-2-yl)-4-chlorophenyl)-2-chloro-4-((3S,5R)-3,4,5-trimethylpiperazin-1-yl)benzamide] | 7.2 nM | 3.9 nM | 0.97 nM |  |  |  |
| Cc1c(C(=O)Nc2ccc(Cl)c(-c3ncc(-c4cccs4)[nH]3)c2)ccc(N2C[C@@H](C)N(C)[C@@H](C)C2)c1F [Example 156, N-(3-(5-(thiophen-2-yl)-1H-imidazol-2-yl)-4-chlorophenyl)-2-methyl-3-fluoro-4-((3S,5R)-3,4,5-trimethylpiperazin-1-yl)benzamide] | 7 nM | 0.2 nM | 0.21 nM |  |  |  |
| CC(C)c1cnc(-c2cc(NC(=O)c3ccc(N4C[C@@H](C)N(C)[C@@H](C)C4)cc3Cl)ccc2Cl)[nH]1 [Example 189, N-(3-(5-isopropyl-1H-imidazol-2-yl)-4-chlorophenyl)-2-chloro-4-((3S,5R)-3,4,5-trimethylpiperazin-1-yl)benzamide Dihydrochloride] | 30 nM | 5.2 nM | 0.82 nM |  |  |  |
| Cc1cc(N2C[C@@H](C)N(C)[C@@H](C)C2)ccc1C(=O)Nc1ccc(Cl)c(-c2nc(C)c(-c3cccs3)[nH]2)c1 [Example 143, N-(3-(4-methyl-5-(thiophen-2-yl)-1H-imidazol-2-yl)-4-chlorophenyl)-2-methyl-4-((3S,5R)-3,4,5-trimethylpiperazin-1-yl)benzamide] | 108 nM | 15 nM | 2.3 nM |  |  |  |
| Cc1cc(C(=O)Nc2ccc(Cl)c(-c3nc4ccccc4[nH]3)c2)ccc1N1C[C@@H](C)N(C)[C@@H](C)C1 [Example 121, N-(3-(1H-benzo[d]imidazol-2-yl)-4-chlorophenyl)-3-methyl-4-((3S,5R)-3,4,5-trimethylpiperazin-1-yl)benzamide] | 29 nM | 23 nM | 1.6 nM |  |  |  |
| Cc1cc(N2C[C@@H](C)N(C)[C@@H](C)C2)ccc1C(=O)Nc1ccc(Cl)c(-c2ncc(C3CCC3)[nH]2)c1 [Example 181, N-(3-(5-cyclobutyl-1H-imidazol-2-yl)-4-chlorophenyl)-2-methyl-4-((3S,5R)-3,4,5-trimethylpiperazin-1-yl)benzamide] | 70 nM | 19 nM | 3.2 nM |  |  |  |
| CC(C)N1[C@H](C)CN(c2ccc(C(=O)Nc3ccc(Cl)c(-c4ncc(-c5cccs5)[nH]4)c3)c(Cl)c2)C[C@@H]1C [Example 159, N-(3-(5-(thiophen-2-yl)-1H-imidazol-2-yl)-4-chlorophenyl)-2-chloro-4-((3S,5R)-4-isopropyl-3,5-dimethylpiperazin-1-yl)benzamide] | 10 nM | 0.36 nM | 0.31 nM |  |  |  |
| Cc1cc(N2C[C@@H](C)N(C)[C@@H](C)C2)ccc1C(=O)Nc1cnc(Cl)c(-c2nc3ccccc3[nH]2)c1 [Example 87] |  |  |  | 21 nM | 1.7 nM | 0.53 nM |
| Cc1ccc(NC(=O)c2ccc(N3C[C@@H](C)N(C)[C@@H](C)C3)cc2Cl)cc1-c1nc2ccc(F)cc2[nH]1 [Example 115, N-(3-(6-fluoro-1H-benzo[d]imidazol-2-yl)-4-methylphenyl)-2-chloro-4-((3S,5R)-3,4,5-trimethylpiperazin-1-yl)benzamide] | 145 nM | 31 nM | 3.4 nM |  |  |  |
| Nc1cc(-c2ccc(C(F)(F)F)cc2)ccc1C(=O)Nc1ccc(Cl)c(-c2nc3ccccc3[nH]2)c1 [Example 25, N-(3-(1H-benzo[d]imidazol-2-yl)-4-chlorophenyl)-3-amino-4′-(trifluoromethyl)biphenyl-4-carboxamide] | 191 nM | 5.5 nM | 4 nM |  |  |  |
| Cc1c(C(=O)Nc2ccc(Cl)c(-c3ncc(-c4ccsc4)[nH]3)c2)ccc(N2C[C@@H](C)N(C)[C@@H](C)C2)c1F [Example 141, N-(3-(5-(thiophen-3-yl)-1H-imidazol-2-yl)-4-chlorophenyl)-2-methyl-3-fluoro-4-((3S,5R)-3,4,5-trimethylpiperazin-1-yl)benzamide] | 9.4 nM | 0.24 nM | 0.35 nM |  |  |  |
| C[C@@H]1CN(c2ccc(C(=O)Nc3ccc(Cl)c(-c4nc5ccc(F)cc5[nH]4)c3)c(Cl)c2)C[C@H](C)N1C [Example 99, N-(3-(6-fluoro-1H-benzo[d]imidazol-2-yl)-4-chlorophenyl)-2-chloro-4-((3S,5R)-3,4,5-trimethylpiperazin-1-yl)benzamide] | 81 nM |  | 1.6 nM |  | 2.6 nM |  |
| Cc1c(C(=O)Nc2ccc(Cl)c(-c3ncc(-c4ccco4)[nH]3)c2)ccc(N2C[C@@H](C)N(C)[C@@H](C)C2)c1F [Example 148, N-(3-(5-(furan-2-yl)-1H-imidazol-2-yl)-4-chlorophenyl)-2-methyl-3-fluoro-4-((3S,5R)-3,4,5-trimethylpiperazin-1-yl)benzamide] | 15 nM | 0.33 nM | 0.26 nM |  |  |  |
| Cc1cc(-c2ccc(C(F)(F)F)cc2)ccc1C(=O)Nc1ccc(Cl)c(-c2ncc(-c3cccs3)[nH]2)c1 [Example 68, N-(3-(5-(thiophen-2-yl)-1H-imidazol-2-yl)-4-chlorophenyl)-3-methyl-4′-(trifluoromethyl)biphenyl-4-carboxamide] | 69 nM | 4 nM | 9.9 nM |  |  |  |
| Cc1cc(N2C[C@@H](C)N(C)[C@@H](C)C2)ccc1C(=O)Nc1ccc(Cl)c(-c2nc3cscc3[nH]2)c1 [Example 198] |  |  |  | 26 nM | 0.3 nM | 0.29 nM |
| C[C@@H]1CN(c2ccc(C(=O)Nc3ccc(Cl)c(-c4nc5ccccc5s4)c3)c(Cl)c2)C[C@H](C)N1C [Example 207, N-(3-(benzo[d]thiazol-2-yl)-4-chlorophenyl)-2-chloro-4-((3S,5R)-3,4,5-trimethylpiperazin-1-yl)benzamide] | 158 nM | 31 nM | 8.5 nM |  |  |  |
| CC(C)N1[C@H](C)CN(c2ccc(C(=O)Nc3ccc(Cl)c(-c4nc5ccccc5[nH]4)c3)c(Cl)c2)C[C@@H]1C [Example 125, N-(3-(1H-benzo[d]imidazol-2-yl)-4-chlorophenyl)-2-chloro-4-((3S,5R)-4-isopropyl-3,5-dimethylpiperazin-1-yl)benzamide] | 23 nM | 1.2 nM | 0.57 nM |  |  |  |
| C[C@@H]1CN(c2ccc(C(=O)Nc3ccc(Cl)c(-c4nc5ccccc5[nH]4)c3)c(Cl)c2)C[C@H](C)N1C [Example 94, N-(3-(1H-benzo[d]imidazol-2-yl)-4-chlorophenyl)-2-chloro-4-((3S,5R)-3,4,5-trimethylpiperazin-1-yl)benzamide] | 16 nM | 0.81 nM | 0.63 nM |  |  |  |
| Cc1cc(N2C[C@@H](C)N(C)[C@@H](C)C2)ccc1C(=O)Nc1ccc(Cl)c(-c2ncc(C(C)C)[nH]2)c1 [Example 170, N-(3-(5-isopropyl-1H-imidazol-2-yl)-4-chlorophenyl)-2-methyl-4-((3S,5R)-3,4,5-trimethylpiperazin-1-yl)benzamide] | 30 nM | 0.22 nM | 0.22 nM |  |  |  |
| C[C@@H]1CN(c2cc(Cl)c(C(=O)Nc3ccc(Cl)c(-c4ncc(-c5ccco5)[nH]4)c3)cc2F)C[C@H](C)N1C [Example 149, N-(3-(5-(furan-2-yl)-1H-imidazol-2-yl)-4-chlorophenyl)-2-chloro-5-fluoro-4-((3S,5R)-3,4,5-trimethylpiperazin-1-yl)benzamide] | 15 nM | 0.27 nM | 0.28 nM |  |  |  |
| Cc1cc(N2C[C@@H](C)N[C@@H](C)C2)ccc1C(=O)Nc1ccc(Cl)c(-c2nc3ccccc3[nH]2)c1 [Example 109, N-(3-(1H-benzo[d]imidazol-2-yl)-4-chlorophenyl)-2-methyl-4-((3S,5R)-3,5-dimethylpiperazin-1-yl)benzamide] | 96 nM | 6.4 nM | 3.8 nM |  |  |  |
| Cc1ccc(NC(=O)c2ccc(N3C[C@@H](C)N(C)[C@@H](C)C3)cc2Cl)cc1-c1nc2ccc(Cl)cc2[nH]1 [Example 113, N-(3-(6-chloro-1H-benzo[d]imidazol-2-yl)-4-methylphenyl)-2-chloro-4-((3S,5R)-3,4,5-trimethylpiperazin-1-yl)benzamide] | 1040 nM | > 10000 nM | 27 nM |  |  |  |
